Measured values as given in patent US9504754B2, “Curcuminoid complexes with enhanced stability, solubility and/or bioavailability” (South Dakota Board of Regents, priority 2013, dated 2016).

Key:
[1] = Aqueous solubility of curcumin at different pH (FIG. 6A/6B); format: physicochemical
[2] = without any solubility enhancement techniques; cited from earlier work

With `COc1cc(/C=C/C(=O)CC(=O)/C=C/c2ccc(O)c(OC)c2)ccc1O` [free curcumin, (1E,6E)-1,7-bis(4-hydroxy-3-methoxyphenyl)-1,6-heptadiene-3,5-dione] the “aqueous solubility of curcumin (colour of solution)” value (“aqueous solubility of curcumin” below) ([1]; pH 1.2) was “absence of soluble curcumin”, the “aqueous solubility of curcumin” value ([1]; pH 4.5) was “absence of soluble curcumin” and the “aqueous solubility of curcumin” value ([1]; pH 7.0) was “absence of soluble curcumin”. For the same compound, the “aqueous solubility of curcumin” value ([1]; pH 7.4) was “absence of soluble curcumin” and the solubility in water [2] was “less than 1 μg/ml”.
